The values below come from US8980866B2, “Complex obtained from hyaluronic acid or a salt thereof and chondroitin sulphate mixtures” (Quimera Ingenieria Biomedica, S.L., priority 2011, dated 2015).

This series in a line: Apparent viscosity by rheometry (HAAKE RheoStress RS300, stress controlled mode, Cross model). It is filed as physicochemical. The note with it: for Viscosity, γ = 1: shear rate 1 s^−1, 25° C.; for Viscosity, γ = 1 / Viscosity, γ = 10 / Viscosity, γ = 100 / Viscosity, γ = 200: Milli-Q water, concentration per Table 3; for Viscosity, γ = 10: shear rate 10 s^−1, 25° C.; for Viscosity, γ = 100: shear rate 100 s^−1, 25° C.; for Viscosity, γ = 200: shear rate 200 s^−1, 25° C. The protocol:
Aqueous solutions of HA:CS mixtures (control) and atomized complexes at different weight ratios of sodium hyaluronate and chondroitin sulphate were prepared for rheological characterization. Their rheological profile was determined using a HAAKE RheoStress RS300 rheometer in stress controlled mode. A 1° cone and 35 mm diameter plate was used.
Controls and 1:1 and 1:10 complexes were reconstituted in Milli-Q water.
Based on an applied shear stress, viscosity of the samples was measured at 25° C. All samples fitted in a Cross model, which allowed to compare the results obtained.

In the case of sodium hyaluronate [Sample 1], the “Viscosity, γ = 1” value was 4884.3 mPa · s; the “Viscosity, γ = 10” value worked out at 2307.0 mPa · s; the “Viscosity, γ = 100” value is on record as 578.0 mPa · s; the “Viscosity, γ = 200” value is listed as 375.0 mPa · s.
With sodium hyaluronate [Sample 2], the “Viscosity, γ = 1” value is recorded as 3378.5 mPa · s; the “Viscosity, γ = 10” value is listed as 1924.5 mPa · s; the “Viscosity, γ = 100” value was 522.0 mPa · s; the “Viscosity, γ = 200” value is 326.5 mPa · s. Besides, the “Viscosity loss, γ = 1” value (shear rate 1 s^−1, difference in viscosity of a sample with respect its control) worked out at 30.8%. The “Viscosity loss, γ = 10” value (shear rate 10 s^−1, difference in viscosity of a sample with respect its control) amounted to 16.5%. Besides, the “Viscosity loss, γ = 100” value (shear rate 100 s^−1, difference in viscosity of a sample with respect its control) came to 9.6%. Also, the “Viscosity loss, γ = 200” value (shear rate 200 s^−1, difference in viscosity of a sample with respect its control) amounted to 12.9%.
